From patent publication US20030148954A1, “Agents and methods for modulating activator protein-1-mediated cellular processes” (Wisconsin Alumni Research Foundation, priority 2001, published 2003)
“Also recorded” adds a separate entry of the source.

Columns and labels:
Format in all cases: cell-based, human
IκBα = test: Northern blotting of IκBα transcripts in K562-Babe and K562-NIC-1 cells; settings: 5 nM TPA 12 h, stably transfected NIC-1
Protocol: (§1) Stable Transfection—K562 cells were stably transfected by electroporation with a Bio-Rad Gene pulser electroporator. Cells (5×10^6) were washed with ice-cold PBS, resuspended in 0.5 ml of ice-cold PBS, mixed with 5 μg linearized plasmid DNA, and subjected to electroporation (960 microfarad; 220 V) in a 0.4 cm-wide electroporation cuvette (BTX). pBabe and pNIC-1 were linearized with NotI. Cells were then added to 20 ml of complete IMEM, grown for 48 h, and diluted in complete IMEM containing 1.5 μg/ml puromycin (pools of K562-Babe and K562-NIC-1 cells). Stably transfected cells were analyzed for erythroid differentiation as soon as the pools were generated by benzidine staining to reduce the probability of phenotypic changes that may result from prolonged growth.
(§2) Northern Blotting—Total RNA from K562-Babe and K562-NIC-1 cells was extracted with Triazol (Life Technologies, Inc.). Ten μg of RNA per sample was electrophoresed on a 1% agarose, 6.6% formaldehyde gel and then transferred overnight to a Magnacharge nylon membrane (Osmonics). RNA was cross-linked to the membrane by UV irradiation. Membranes were prehybridized for 30 min at 60° C. in ExpressHyb hybridization solution (Clontech). […] Radioactivity was quantitated by PhosphorImager analysis with ImageQuant software (Molecular Dynamics).

GAL4-c-Jun = GAL4-c-Jun transactivation, transient assays in K562 cells; settings: K562, data not presented
p38 = test: Western blot with phospho-specific antibodies, p38; settings: K562-NIC-1 versus K562-Babe, 5 nM TPA 30 min
Protocol: as §1
(§3) To measure the phosphorylation state of components of the MAPK pathway, K562-Babe and K562-NIC-1 cells (1×10^6) were collected after treatment with 5 nM TPA or DMSO for 30 min. Cells were washed once with ice-cold PBS, cell pellets were resuspended in 30 μl ice-cold PBS and were immediately boiled in 70 μl SDS sample buffer for 10 min. Proteins (10 μl) were resolved by SDS-PAGE on a 10% acrylamide gel and transferred to Immobilon P membrane (Millipore). […] Antigen-antibody complexes were detected with ECL Plus™ (Amersham Life Science) according to manufacturer's instructions.

JNK = test: Western blot with phospho-specific antibodies, JNK; settings: K562-NIC-1 versus K562-Babe, 5 nM TPA 30 min
Protocol: as §1, §3

AP-1 [1] = test: AP-1 luciferase reporter, transient transfection of K562 cells
Excerpt: (§4) Plasmids—The pBabe-NIC-1 (pNIC-1) expression vector encoding constitutively active Notch-1 (NIC-1) was described previously (36,37,51). This vector was derived from the pBabe-puro retroviral vector and includes a cDNA sequence encoding amino acids 1759-2556 of human Notch-1 with a Myc tag fused to its carboxyl terminus. Human NIC-1 deletion mutants were generated by PCR using a full-length human Notch-1 expression vector as the template. The Notch-dependent reporter plasmid containing four CBF1 binding sites and an simian virus 40 promoter fused to luciferase (p4×CBF1luc) was described previously (52). The AP-1 reporter plasmid (p1×AP1luc) containing a collagenase promoter fragment (−73/+67) with a single AP-1 binding site in the luciferase reporter vector pGL2-basic (Promega) was described previously (53). The NF-κB reporter plasmid (p3×κBluc) containing three NF-κB binding sites and a minimal promoter fused to luciferase was a kind gift of Dr. Shigeki Miyamoto (University of Wisconsin Medical School). The pBabe-H-Ras(12V) expression vector encoding constitutively active H-Ras was a kind gift of Dr. Charming Der (University of North Carolina-Chapel Hill). This vector was derived from the pBabe-puro retroviral vector and includes a cDNA encoding H-Ras with a Gly to Val mutation at amino acid 12.
Transient Transfections—K562 cells (5×10^5) were collected by centrifugation at 240×g for 8 min at 4° C. and resuspended in 4 ml of complete IMEM. Plasmid DNAs (1 μg of reporter and 2 μg of effector) were added to 150 μl of IMEM, incubated with Superfect (4 μl/1 μg DNA; Qiagen) for 10 min at room temperature and then added to cells.
For each transfection, cells were incubated for 26 h after transfection and then treated with TPA (final concentration: 5 nM) or the vehicle (DMSO). After incubating for another 12 or 16 h, cells were harvested and assayed for luciferase activity. Luciferase activity was normalized by the protein content of the lysates, determined by Bradford assay using γ-globulin as a standard.

IL-8 = test: Northern blotting of IL-8 transcripts in K562-Babe and K562-NIC-1 cells; settings: 5 nM TPA 12 h, stably transfected NIC-1
Protocol: as §1, §2

AP-1 [2] = test: AP-1 luciferase reporter, transient transfection of HeLa cells; settings: TPA 5 nM 16 h
Excerpt: as §4, with “The pBabe-H-Ras(12V) expression vector encoding constitutively active H-Ras was a kind gift of Dr. Charming Der (University of North Carolina-Chapel Hill). This vector was derived from the pBabe-puro retroviral vector and includes a cDNA encoding H-Ras with a Gly to Val mutation at amino acid 12.” left out
For each transfection, cells were incubated for 26 h after transfection and then treated with TPA (final concentration: 5 nM) or the vehicle (DMSO). […] Luciferase activity was normalized by the protein content of the lysates, determined by Bradford assay using γ-globulin as a standard.

In the case of “NIC-1: constitutively active Notch-1 intracellular domain, amino acids 1759-2556 of human Notch-1 with carboxyl-terminal Myc tag, expressed from pBabe-NIC-1”, the “effect on TPA induction of IκBα transcripts” value (IκBα) is reported as “no effect”, the “inhibition of GAL4-c-Jun-mediated transactivation” value (GAL4-c-Jun) is reported as “did not significantly inhibit” and the “effect on TPA-induced or basal phosphorylation of p38” value (p38) is reported as “did not affect”. The “effect on TPA-induced or basal phosphorylation of JNK” value (JNK) was “did not affect”, the “component of TPA-induced AP-1 reporter activity insensitive to NIC-1” value (AP-1 [1]; K562, both AP-1 reporters) was roughly 30% and the “inhibition of H-Ras(12V)-activated AP-1 reporter activity” value (AP-1 [1]; K562, cotransfected pBabe-H-Ras(12V)) was “almost completely inhibited; also recorded: completely inhibits”. The “concentration response curve for AP-1 repression relative to CSL-dependent activation” value (AP-1 [1]; K562, increasing amounts of NIC-1 expression vector, TPA 5 nM 12 h) was “slightly shifted to the left”, the “repression of TPA-induced AP-1 reporter activity” value (AP-1 [1]; K562, p1×AP1luc, TPA 5 nM 12 or 16 h) was “repressed” and the “degree of repression of AP-1 reporter with tandem AP-1 binding sites upstream of a β-globin promoter” value (AP-1 [1]; K562, pβ106(AP1)2luc, TPA) was “comparable to that seen with the MMP1 promoter”. For the same substance, the “inhibition of TPA-inducible AP-1 activity” value (AP-1 [1]; K562, range of TPA concentrations, 16 h) was 70%, the “TPA induction of IL-8 transcript levels in K562-NIC-1 versus K562-Babe cells” value (IL-8) was “considerably lower” and the “repression of TPA-induced AP-1-mediated activation” value (AP-1 [2]) was “repressed”.
